{"source": "patent US20030203850A1", "about": "“Transdifferentiation of pancreatic acinar cells” (McGill University, priority 2002, published 2003)", "test_system": "β-cell mass", "experiment": "INGAP peptide administration to hamsters: extra-islet acinar-associated and total β-cell mass", "type": "in vivo", "details": "250 μg twice daily intra-peritoneal, female Syrian hamsters", "experimental": "Female Syrian hamsters, 8 weeks of age, were randomly allocated to receive daily intra-peritoneal injections of INGAP peptide (Ile-Gly-Leu-His-Asp-Pro-Ser-His-Gly-Thr-Leu-Pro-Asn-Gly-Ser) (250 μg twice daily) or an equivalent volume of saline for either 10 (saline n=10, INGAP n=15) or 30 (S n=10, I n=15) days. At the end of the study period, animals were sacrificed by bleeding, and the pancreata excised through a midline laparotomy incision, for morphologic and morphometric analysis.\nSamples were embedded in paraffin wax and 4 μm-thick sections were cut. The sections were processed for routine histology and immunostained for insulin, CK19 (1:750, 1:100 respective antibody dilution, Dako Corp., Santa Barbara, Calif.), glucagon, somatostatin and pancreatic polypeptide (1:750 antibody dilution, Biogenex, San Ramon, Calif., USA), using the AB complex method (streptavidin-biotin horseradish peroxidase complex, Dako Corp., Santa Barbara, Calif.), as described previously (22). A rabbit PDX-1 antibody directed against the NH2-terminus of the frog homologue of the protein encoded by the pdx-1 gene was used as the primary antibody (1:750 dilution; a gift from C. Wright, Vanderbilt University). Slides were countered stained with Harris hematoxylin (Sigma, St. Louis, Mo.).\nComparison between groups was done using 1-way ANOVA, 2-way ANOVA with post hoc one-tail t-test or X^2 analysis where appropriate. Data are presented as mean±SEM. Significance was accepted at the 5% level.\nTo determine β-cell mass (mg/pancreas), each gland was sectioned along its longitudinal axis to avoid any sampling bias due to regional variation in islet distribution and cell composition. Islet cross-sectional areas were traced manually with the aid of an Olympus BX60 microscope connected by video camera to a computer equipped with Image-pro Plus software version 4.0 (23). The total β-cell mass was calculated by a stereological equation, as described previously (22).\nβ-cell neogenesis and acinar-associated β-cell mass was analysed as described previously […]. Briefly, extra-islet acinar-associated β-cells/cell clusters were defined as insulin positive cells/cell clusters not associated with any other endocrine cells (α, δ, PP), completely surrounded by acinar tissue and a minimum of 100 μm from ductular tissue. The percent β-cell area being extra-islet acinar-associated was determined and multiplied by the weight of the excised organ to determine extra-islet acinar-associated β-cell mass.", "note": "Ends that are not written are not given here.", "data": [{"sequence": "IGLHDPSHGTLPNGS [INGAP peptide]", "values": [{"measurement": "increase in extra-islet acinar-associated β-cell mass versus saline infused controls", "setting": "10 days of treatment", "value": 180, "unit": "%"}, {"measurement": "increase in total β-cell mass", "setting": "10 days of treatment", "value": 44, "unit": "%"}, {"measurement": "increase in total β-cell mass", "setting": "30 days of treatment", "value": 31, "unit": "%"}, {"measurement": "increase in extra-islet acinar-associated β-cell mass versus saline infused controls", "setting": "30 days of treatment, p<0.05", "value": 200, "unit": "%"}]}]}
